Assay results from article PMC4584933, “Establishing the pig as a large animal model for vaccine development against human cancer” (Frontiers in Genetics, 2015).

Columns and labels:
[1] = tested on: SLA-2*05:02; assay: Peptide-MHC class I complex stability, scintillation proximity assay (SPA); set-up: species or system pig; conditions: biotinylated recombinant SLA heavy chain, 125I-β2m, excess unlabeled β2m, read every 40 min, number only if t1/2 ≥ 0.5 h, '-' = not stably binding
Protocol: (§1) The stability of the selected 198 peptides in complex with relevant SLA class I molecules and β2m was determined using a scintillation proximity assay (SPA), as previously described (Harndahl et al., [2011]). Briefly, biotinylated recombinant MHC class I heavy chains were attached to a streptavidin-coated scintillation microplate together with iodinated (^125I) β2m and candidate peptide resulting in a scintillation signal, which was consecutively measured every 40 min by a scintillation plate counter. The duration of this signal is directly correlated to the stability of the peptide-MHC class I-β2m complex under dissociating conditions and in the presence of excess unlabeled β2m (Harndahl et al., [2011]). Peptides with a half-life ≥ 0.5 h were selected as stable binders.

[2] = tested on: SLA-2*04:01; assay: as above; set-up: species or system pig; conditions: biotinylated recombinant SLA heavy chain, 125I-β2m, excess unlabeled β2m, read every 40 min, number only if t1/2 ≥ 0.5 h, '-' = not stably binding
Protocol: as §1

[3] = tested on: SLA-3*04:01; assay: as above; set-up: species or system pig; conditions: biotinylated recombinant SLA heavy chain, 125I-β2m, excess unlabeled β2m, read every 40 min, number only if t1/2 ≥ 0.5 h, '-' = not stably binding
Protocol: as §1

[4] = tested on: PBMCs; assay: In vitro peptide stimulation of porcine PBMCs, IFN-γ release assay (ELISA); format: cell-based, pig; set-up: key to T cell response: “x” indicates that a response was found to this given peptide at least once; conditions: PBMCs of immunized pigs, 2 × 10^5/well, 5 μg/ml peptide, 67.5–70.0 h, IFN-γ ELISA; response = 2-fold increase vs day -2 and at least 25 pg/ml IFN-γ, found at least once; SLA restriction not included

Row | Sequence | Binder (t1/2 ≥ 0.5 h): half-life of peptide-SLA-2*05:02 complex [1] | Binder (t1/2 ≥ 0.5 h): half-life of peptide-SLA-3*04:01 complex [3] | further results
1 | KVIPTLFNAI [IDO61, porcine IDO-derived 9-11mer peptide] | - (t1/2 (hours) is listed for each of the stably binding peptides (t1/2 ≥ 0.5 h)) | – | –
2 | LSEKLGLPPI [IDO72, porcine IDO-derived 9-11mer peptide] | - (t1/2 (hours) is listed for each of the stably binding peptides (t1/2 ≥ 0.5 h)) | – | –
3 | LSYPDTDVI [RhoC35, porcine RhoC-derived 9-11mer peptide] | - (t1/2 (hours) is listed for each of the stably binding peptides (t1/2 ≥ 0.5 h)) | – | Binder (t1/2 ≥ 0.5 h): half-life of peptide-SLA-2*04:01 complex [2]: - (t1/2 (hours) is listed for each of the stably binding peptides (t1/2 ≥ 0.5 h))
4 | LSYPDTDVILM [RhoC37, porcine RhoC-derived 9-11mer peptide] | 84 min | – | Binder (t1/2 ≥ 0.5 h): half-life of peptide-SLA-2*04:01 complex [2]: - (t1/2 (hours) is listed for each of the stably binding peptides (t1/2 ≥ 0.5 h))
5 | MAAIRKKLVI [RhoC40, porcine RhoC-derived 9-11mer peptide] | 30 min | – | –
6 | MVSLRNYHLQI [IDO84, porcine IDO-derived 9-11mer peptide] | - (t1/2 (hours) is listed for each of the stably binding peptides (t1/2 ≥ 0.5 h)) | – | –
7 | QEMRTYMPP [IDO101, porcine IDO-derived 9-11mer peptide] | – | - (t1/2 (hours) is listed for each of the stably binding peptides (t1/2 ≥ 0.5 h)) | –
8 | QRLAHLVLGY [IDO102, porcine IDO-derived 9-11mer peptide] | – | - (t1/2 (hours) is listed for each of the stably binding peptides (t1/2 ≥ 0.5 h)) | Binder (t1/2 ≥ 0.5 h): half-life of peptide-SLA-2*04:01 complex [2]: - (t1/2 (hours) is listed for each of the stably binding peptides (t1/2 ≥ 0.5 h))
9 | RKNKRRRGCPI [RhoC44, porcine RhoC-derived 9-11mer peptide] | – | - (t1/2 (hours) is listed for each of the stably binding peptides (t1/2 ≥ 0.5 h)) | –
10 | RLRPLSYPD [RhoC45, porcine RhoC-derived 9-11mer peptide] | – | - (t1/2 (hours) is listed for each of the stably binding peptides (t1/2 ≥ 0.5 h)) | –
11 | RNFLHSLES [IDO105, porcine IDO-derived 9-11mer peptide] | – | 882 min | T cell response [4]: x
12 | RNFLHSLESG [IDO106, porcine IDO-derived 9-11mer peptide] | – | 30 min | –
13 | RNFLHSLESGP [IDO107, porcine IDO-derived 9-11mer peptide] | – | 42 min | T cell response [4]: x
14 | RNIAIPYCKL [IDO108, porcine IDO-derived 9-11mer peptide] | – | - (t1/2 (hours) is listed for each of the stably binding peptides (t1/2 ≥ 0.5 h)) | –
15 | RNIAIPYCKLS [IDO109, porcine IDO-derived 9-11mer peptide] | – | - (t1/2 (hours) is listed for each of the stably binding peptides (t1/2 ≥ 0.5 h)) | –
16 | RNYHLQIVT [IDO110, porcine IDO-derived 9-11mer peptide] | – | - (t1/2 (hours) is listed for each of the stably binding peptides (t1/2 ≥ 0.5 h)) | Binder (t1/2 ≥ 0.5 h): half-life of peptide-SLA-2*04:01 complex [2]: - (t1/2 (hours) is listed for each of the stably binding peptides (t1/2 ≥ 0.5 h))
17 | RNYHLQIVTK [IDO111, porcine IDO-derived 9-11mer peptide] | – | - (t1/2 (hours) is listed for each of the stably binding peptides (t1/2 ≥ 0.5 h)) | Binder (t1/2 ≥ 0.5 h): half-life of peptide-SLA-2*04:01 complex [2]: - (t1/2 (hours) is listed for each of the stably binding peptides (t1/2 ≥ 0.5 h))
18 | RNYHLQIVTKY [IDO112, porcine IDO-derived 9-11mer peptide] | – | 30 min | Binder (t1/2 ≥ 0.5 h): half-life of peptide-SLA-2*04:01 complex [2]: 216 min
19 | VLSKGDALL [IDO127, porcine IDO-derived 9-11mer peptide] | - (t1/2 (hours) is listed for each of the stably binding peptides (t1/2 ≥ 0.5 h)) | – | –
20 | VPTVFENYI [RhoC54, porcine RhoC-derived 9-11mer peptide] | 108 min | – | –
21 | YDRLRPLSY [RhoC56, porcine RhoC-derived 9-11mer peptide] | – | - (t1/2 (hours) is listed for each of the stably binding peptides (t1/2 ≥ 0.5 h)) | –
22 | YDRLRPLSYPD [RhoC57, porcine RhoC-derived 9-11mer peptide] | – | - (t1/2 (hours) is listed for each of the stably binding peptides (t1/2 ≥ 0.5 h)) | –
23 | YVPTVFENYI [RhoC61, porcine RhoC-derived 9-11mer peptide] | 42 min | – | –
